The values below come from patent US20230278972A1, “SUBSTITUTED HALOALKYL SULFONANILIDE HERBICIDES” (FMC Corporation, priority 2020, published 2023).

The subject of data set [1] is barnyardgrass (Echinochloa crus-galli). Nature of the data set: Test A preemergence, barnyardgrass. The class given is in vivo. Particulars: Echinochloa crus-galli, pre-emergence, 240 h; Preemergence, 1000 g ai/ha; 0 to 100 scale (0 no effect, 100 complete control); read-out: Plant response rating, Barnyardgrass. The method in brief: (§1)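 Postemergence ratings come from foliar sprays onto one- to two-leaf plants of 2 to 10 cm grown in loam/sand; preemergence ratings come from a directed spray onto the soil of newly seeded pots. Formulation was a surfactant-containing non-phytotoxic solvent blend.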

The test system of data set [2] is kochia (Bassia scoparia). As to the kind of experiment: Test A preemergence, kochia. The class given is in vivo. Particulars: Bassia scoparia, pre-emergence, 240 h; Preemergence, 1000 g ai/ha; 0 to 100 scale (0 no effect, 100 complete control); read-out: Plant response rating, Kochia. The method in brief: as §1
The subject of data set [3] is Ryegrass, Italian (Italian ryegrass, Lolium multiflorum). As to the kind of experiment: Test A preemergence, Ryegrass, Italian. The class given is in vivo. Particulars: Lolium multiflorum, pre-emergence, 240 h; Preemergence, 1000 g ai/ha; 0 to 100 scale (0 no effect, 100 complete control); read-out: Plant response rating, Ryegrass, Italian. The method in brief: as §1

Data set [4] concerns Foxtail, Giant (giant foxtail, Setaria faberi). Nature of the data set: Test A preemergence, Foxtail, Giant. The class given is in vivo. Particulars: Setaria faberi, pre-emergence, 240 h; Preemergence, 1000 g ai/ha; 0 to 100 scale (0 no effect, 100 complete control); read-out: Plant response rating, Foxtail, Giant. The method in brief: as §1
Data set [5] relates to pigweed (Amaranthus retroflexus). Nature of the data set: Test A preemergence, pigweed. Particulars: Amaranthus retroflexus, pre-emergence, 240 h, 1000 g ai/ha, 0 to 100 scale (0 no effect, 100 complete control), read-out: Plant response rating, Pigweed. It is filed as in vivo. The method in brief:
(§2)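 Greenhouse pot test in a loam–sand blend; compounds delivered in a non-phytotoxic solvent carrying a surfactant, applied either as a directed spray to soil at seeding or over seedlings 2 to 10 cm high with one to two leaves.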

The test system of data set [6] is barnyardgrass (Echinochloa crus-galli). As to the kind of experiment: Test A postemergence, barnyardgrass. It is filed as in vivo. Particulars: Echinochloa crus-galli, post-emergence, 240 h; Postemergence, 1000 g ai/ha; visual injury, 0 to 100 scale (0 no effect, 100 complete control), approx. 10 days; read-out: Plant response rating, Barnyardgrass. The method in brief:
as §2

The subject of data set [7] is kochia (Bassia scoparia). As to the kind of experiment: Test A postemergence, kochia. It is filed as in vivo. Particulars: Bassia scoparia, post-emergence, 240 h; Postemergence, 1000 g ai/ha; visual injury, 0 to 100 scale (0 no effect, 100 complete control), approx. 10 days; read-out: Plant response rating, Kochia. The method in brief: as §1
In data set [8] the test system is ragweed (common ragweed, Ambrosia artemisiifolia). Nature of the data set: Test A postemergence, ragweed. It is filed as in vivo. Particulars: Ambrosia artemisiifolia, post-emergence, 240 h; Postemergence, 1000 g ai/ha; visual injury, 0 to 100 scale (0 no effect, 100 complete control), approx. 10 days; read-out: Plant response rating, Ragweed. The method in brief:
as §1

Data set [9] has as its system Ryegrass, Italian (Italian ryegrass, Lolium multiflorum). As to the kind of experiment: Test A postemergence, Ryegrass, Italian. The class given is in vivo. Particulars: Lolium multiflorum, post-emergence, 240 h; Postemergence, 1000 g ai/ha; visual injury, 0 to 100 scale (0 no effect, 100 complete control), approx. 10 days; read-out: Plant response rating, Ryegrass, Italian. The method in brief: as §1

The test system of data set [10] is Foxtail, Giant (giant foxtail, Setaria faberi). As to the kind of experiment: Test A postemergence, Foxtail, Giant. The class given is in vivo. Particulars: Setaria faberi, post-emergence, 240 h; Postemergence, 1000 g ai/ha; visual injury, 0 to 100 scale (0 no effect, 100 complete control), approx. 10 days; read-out: Plant response rating, Foxtail, Giant. The method in brief:
as §1

In data set [11] the test system is pigweed (Amaranthus retroflexus). Nature of the data set: Test A postemergence, pigweed. The class given is in vivo. Particulars: Amaranthus retroflexus, post-emergence, 240 h; Postemergence, 1000 g ai/ha; visual injury, 0 to 100 scale (0 no effect, 100 complete control), approx. 10 days; read-out: Plant response rating, Pigweed. The method in brief: as §1
Data set [12] relates to wheat (Triticum aestivum). As to the kind of experiment: Test A postemergence, wheat. It is filed as in vivo. Particulars: Triticum aestivum, post-emergence, 240 h; Postemergence, 1000 g ai/ha; visual injury, 0 to 100 scale (0 no effect, 100 complete control), approx. 10 days; read-out: Plant response rating, Wheat. The method in brief:
as §2

A further data set concerns corn (Zea mays). Nature of the data set: Test A postemergence, corn. The class given is in vivo. Particulars: Zea mays, post-emergence, 240 h; Postemergence, 1000 g ai/ha; visual injury, 0 to 100 scale (0 no effect, 100 complete control), approx. 10 days. The method in brief: as §1
Data set [13] concerns blackgrass (Alopecurus myosuroides). As to the kind of experiment: Test A postemergence, blackgrass. The class given is in vivo. Particulars: Alopecurus myosuroides, post-emergence, 240 h; Postemergence, 1000 g ai/ha; visual injury, 0 to 100 scale (0 no effect, 100 complete control), approx. 10 days; read-out: Plant response rating, Blackgrass. The method in brief: as §1
Data set [14] relates to galium (catchweed bedstraw, Galium aparine). Nature of the data set: Test A postemergence, galium. The class given is in vivo. Particulars: Galium, post-emergence, 240 h; Postemergence, 1000 g ai/ha; visual injury, 0 to 100 scale (0 no effect, 100 complete control), approx. 10 days; read-out: Plant response rating, Galium. The method in brief:
as §2

Another data set concerns rice (Oryza sativa). As to the kind of experiment: Test B flooded paddy test, rice. Particulars: 336 h, read-out: Plant response rating, Rice.
Data set [15] deals with ducksalad (Heteranthera limosa). As to the kind of experiment: Test B flooded paddy test, ducksalad. Particulars: 336 h, read-out: Plant response rating, Ducksalad.
Data set [16] has as its system barnyardgrass (Echinochloa crus-galli). Nature of the data set: Test B flooded paddy test, barnyardgrass. Particulars: 336 h, read-out: Plant response rating, Barnyardgrass.
Data set [17] relates to ragweed (common ragweed, Ambrosia artemisiifolia). Nature of the data set: Test A preemergence, ragweed. Particulars: Ambrosia artemisiifolia, pre-emergence, 240 h; Preemergence, 1000 g ai/ha; 0 to 100 scale (0 no effect, 100 complete control); read-out: Plant response rating, Ragweed. The class given is in vivo. The method in brief:
as §1

As to `Cc1cc(C)c(C(=O)N2CCOCC2)cc1NS(=O)(=O)C(F)(F)F` [Compound 6, N-[2,4-Dimethyl-5-(4-morpholinylcarbonyl)phenyl]-1,1,1-trifluoromethanesulfonamide], the pest or weed control at 1000 g/ha in [1] stood at 100%; with kochia (Bassia scoparia) [2] it was 100%; in data set [3], 100%; in data set [4], 100%; in [5], 100%; in data set [6] it was 90%. Moreover, the pest or weed control at 1000 g/ha with kochia (Bassia scoparia) [7] amounted to 80%; in [8], 50%; in data set [9], 80%; in [10], 90%; in [11], 100%; in data set [13] it was 60%. For the same compound, the pest or weed control at 1000 g/ha in [14] was determined as 90%. Also, the plant injury at 1000 g/ha in data set [12] worked out at 60%. Moreover, the Corn plant response rating (crop injury, 0 = no effect, 100 = complete kill) at 1000 g/ha in the data set with corn (Zea mays) came to 60%. Besides, in the data set with rice (Oryza sativa), the plant injury at 250 g/ha was 0%. The pest or weed control at 250 g/ha in data set [15] and in data set [16] was 0% in each case.

Usually melting point stands for the temperature, or range, at which the solid turns liquid. `Cc1cc(C)c(C(=O)N2CCCCC2)cc1NS(=O)(=O)C(F)(F)F` [Compound 260, N-[2,4-Dimethyl-5-(1-piperidinylcarbonyl)phenyl]-1,1,1-trifluoromethanesulfonamide] showed a melting point of 262 to 266 °C. The pest or weed control at 1000 g/ha in data set [1] came out at 100%. In the data set on kochia (Bassia scoparia) [2], the pest or weed control at 1000 g/ha came to 40%. For the same compound, the pest or weed control at 1000 g/ha in data set [17] was determined as 90%. Moreover, the pest or weed control at 1000 g/ha in [3] is 100%. Moreover, the pest or weed control at 1000 g/ha in data set [4] worked out at 100%. Further, the pest or weed control at 1000 g/ha in data set [5] turned out to be 100%. For the same compound, the pest or weed control at 1000 g/ha in data set [6] was determined as 90%. Moreover, the pest or weed control at 1000 g/ha in the data set with kochia (Bassia scoparia) [7] was 0%. Besides, the pest or weed control at 1000 g/ha in data set [8] was determined as 50%. The pest or weed control at 1000 g/ha in data set [9] stood at 60%. For the same compound, the pest or weed control at 1000 g/ha in data set [10] was determined as 50%. For the same compound, the pest or weed control at 1000 g/ha in [11] stood at 80%. For the same compound, the plant injury at 1000 g/ha in [12] worked out at 60%. The compound also gave a Corn plant response rating (crop injury, 0 = no effect, 100 = complete kill) at 1000 g/ha with corn (Zea mays) of 10%. In addition, the pest or weed control at 1000 g/ha in data set [13] came out at 50%. For the same compound, the pest or weed control at 1000 g/ha in data set [14] turned out to be 70%. For the same compound, the plant injury at 250 g/ha in the data set with rice (Oryza sativa) was determined as 0%. Also, the pest or weed control at 250 g/ha in [15] came out at 80%. The pest or weed control at 250 g/ha in data set [16] turned out to be 0%.
